These results are taken from patent US11814386B2, “Fused pyrrolines which act as ubiquitin-specific protease 30 (USP30) inhibitors” (FORMA Therapeutics, Inc., priority 2018, dated 2023).

Where only a bound is given, the exact number is not on record here.

The target in this assay is human recombinant USP30 (Homo sapiens (Human), UniProt Q70CQ3). Kind of assay: Ubiquitin-Rhodamine 110 Assay for USP30 Activity. The following applies: 0.2 nM USP30, 25 nM Ub-Rh110, 30 min preincubation. The class given is biochemical. On the procedure: The assay was performed in a final volume of 9 μL in assay buffer containing 20 mM Tris-HCl (pH 8.0, (IM Tris-HCl, pH 8.0 solution; Corning 46-031-CM)), 1 mM GSH (L-glutathione reduced, Sigma-Aldrich, G4251-100G), 0.03% BGG (0.22 μM filtered, Sigma, G7516-25G), and 0.01% Triton X-100 (Sigma, T9284-10L). Nanoliter quantities of 10-point, 3-fold serial dilution in DMSO were pre-dispensed into 1536 assay plates (Corning, #3724BC) for a final test concentration of 25 μM to 1.3 nM, top to lowest dose, respectively. Concentration and incubation times were optimized for the maximal signal-to-background while maintaining initial velocity conditions at a fixed substrate concentration. The final concentration of USP30 (human recombinant USP30, Boston Biochem, cat. #E-582) in the assay was 0.2 nM. Final substrate (Ub-Rh110; Ubiquitin-Rhodamine 110, UbiQ-126) concentration was 25 nM with [Ub-Rh110]<<Km. 3 μL of 2×USP30 was added to assay plates (pre-stamped with compound), preincubated for 30 minutes and then treated with 3 μL of 2×Ub-Rh110. Plates were incubated for 30 minutes at room temperature before addition of 3 μL of stop solution (final concentration of 10 mM citric acid (Sigma, 251275-500G)). Fluorescence was read on the Envision (excitation at 485 nm and emission at 535 nm; Perkin Elmer) or on the PheraSTAR (excitation at 485 nm and emission at 535 nm; BMG Labtech) fluorescence reader.
human recombinant USP30, sequence (Q70CQ3 whole entry): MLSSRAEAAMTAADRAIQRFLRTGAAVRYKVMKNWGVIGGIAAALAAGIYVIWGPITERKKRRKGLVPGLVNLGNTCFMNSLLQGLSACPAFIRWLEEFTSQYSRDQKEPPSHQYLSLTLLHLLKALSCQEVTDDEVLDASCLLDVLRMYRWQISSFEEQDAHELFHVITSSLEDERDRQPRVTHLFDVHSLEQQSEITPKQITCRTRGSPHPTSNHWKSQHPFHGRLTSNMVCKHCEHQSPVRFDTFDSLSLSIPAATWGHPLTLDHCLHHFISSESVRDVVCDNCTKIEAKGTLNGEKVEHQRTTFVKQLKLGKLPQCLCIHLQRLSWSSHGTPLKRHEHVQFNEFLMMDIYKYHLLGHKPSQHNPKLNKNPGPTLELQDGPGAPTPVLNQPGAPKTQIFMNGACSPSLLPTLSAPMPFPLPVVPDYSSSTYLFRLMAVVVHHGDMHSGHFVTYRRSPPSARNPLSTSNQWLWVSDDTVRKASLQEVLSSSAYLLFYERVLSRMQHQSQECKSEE
For all assay formats, data were reported as percent inhibition compared with control wells based on the following equation: % inh=1−((FLU−AveLow)/(AveHigh−AveLow)) where FLU=measured Fluorescence, AveLow=average Fluorescence of no enzyme control (n=16), and AveHigh=average Fluorescence of DMSO control (n=16). IC50 values were determined by curve fitting of the standard 4 parameter logistic fitting algorithm included in the Activity Base software package: IDBS XE Designer Model205. Data is fitted using the Levenburg Marquardt algorithm.
In the case of `N#CN1C[C@@H]2C[C@H]1CCN2C(=O)c1cc(-c2ccccc2Oc2ccccc2)[nH]n1` (single isomer, unassigned) [Compound 1-a], the IC50 was 0.1 to 1 µM.

Take `N#CN1C[C@H]2C[C@@H]1CCN2C(=O)c1cc(-c2ccccc2Oc2ccccc2)[nH]n1` (single isomer, unassigned) [Compound 1b]: the IC50 was less than 0.1 µM.

Turning to `N#CN1CC2CCC1C2NC(=O)c1cc(-c2ccccc2Oc2ccccc2)[nH]n1` (single isomer, unassigned) [Compound 2-a], the IC50 is less than 0.1 µM.

Take `N#CN1CC2CCC1C2NC(=O)c1cc(-c2ccccc2Oc2ccccc2)[nH]n1` (single isomer, unassigned) [Compound 2-b]: the IC50 is greater than 1 µM.

For `N#CN1C[C@H]2C[C@@]2(NC(=O)c2cc(-c3ccccc3Oc3ccccc3)[nH]n2)C1` (single isomer, unassigned) [Compound 3-a], the concentration for half-maximal inhibition (IC50) is 0.1 to 1 µM.

As to `N#CN1C[C@@H]2C[C@]2(NC(=O)c2cc(-c3ccccc3Oc3ccccc3)[nH]n2)C1` (single isomer, unassigned) [Compound 3-b], the IC50 is less than 0.1 µM.

Consider `N#CN1C[C@@H]2C[C@H]1CN2C(=O)c1cc(-c2ccccc2Oc2ccccc2)[nH]n1` (single isomer, unassigned) [Compound 4-a], for which the IC50 was in the range of 0.1 to 1 µM.

Regarding `N#CN1C[C@H]2C[C@@H]1CN2C(=O)c1cc(-c2ccccc2Oc2ccccc2)[nH]n1` (single isomer, unassigned) [Compound 4-b], the 50% inhibitory concentration (IC50) was in the range of 0.1 to 1 µM.

Turning to `N#CN1C[C@@H](NC(=O)c2cc(-c3ccccc3Oc3ccccc3)[nH]n2)C2(CC2)C1` (single isomer, unassigned) [Compound 5-a], the IC50 was less than 0.1 µM.

For `N#CN1C[C@H](NC(=O)c2cc(-c3ccccc3Oc3ccccc3)[nH]n2)C2(CC2)C1` (single isomer, unassigned) [Compound 5-b], the IC50 was in the range of 0.1 to 1 µM.

For the molecule `N#CN1C[C@H]2C[C@@H]1[C@H]2NC(=O)c1cc(-c2ccccc2Oc2ccccc2)[nH]n1` (single isomer, unassigned) [Compound 8-a], the IC50 was in the range of 0.1 to 1 µM.

Consider `N#CN1C[C@@H]2C[C@H]1[C@@H]2NC(=O)c1cc(-c2ccccc2Oc2ccccc2)[nH]n1` (single isomer, unassigned) [Compound 8-b], for which the IC50 was in the range of 0.1 to 1 µM.

Turning to `N#CN1C[C@@H](NC(=O)c2cc(-c3ccccc3Oc3ccccc3)[nH]n2)CC12COC2` (single isomer, unassigned) [Compound 9-a], the IC50 is greater than 1 µM.

For the molecule `N#CN1C[C@H](NC(=O)c2cc(-c3ccccc3Oc3ccccc3)[nH]n2)CC12COC2` (single isomer, unassigned) [Compound 9-b], the IC50 is greater than 1 µM.

`N#CN1C[C@@H]2CCC[C@]2(NC(=O)c2cc(-c3ccccc3Oc3ccccc3)[nH]n2)C1` (single isomer, unassigned) [Compound 20-a]: the IC50 was less than 0.1 µM.

With `N#CN1C[C@H]2CCC[C@@]2(NC(=O)c2cc(-c3ccccc3Oc3ccccc3)[nH]n2)C1` (single isomer, unassigned) [Compound 20-b], the IC50 is less than 0.1 µM.

Regarding `N#CN1C[C@@H]2CC[C@]2(NC(=O)c2cc(-c3ccccc3Oc3ccccc3)[nH]n2)C1` (stereo in doubt) [Compound 6-a, N-((1R,5S)-3-cyano-3-azabicyclo[3.2.0]heptan-1-yl)-5-(2-phenoxyphenyl)-1H-pyrazole-3-carboxamide], the IC50 is less than 0.1 µM.

Take `N#CN1C[C@H]2CC[C@@]2(NC(=O)c2cc(-c3ccccc3Oc3ccccc3)[nH]n2)C1` (stereo in doubt) [Compound 6-b, N-((1S,5R)-3-cyano-3-azabicyclo[3.2.0]heptan-1-yl)-5-(2-phenoxyphenyl)-1H-pyrazole-3-carboxamide]: the 50% inhibitory concentration (IC50) lay within 0.1 to 1 µM.

What is called IC50 is the concentration at which inhibition is half-maximal.
